From ChEMBL document CHEMBL1201862, “PubChem BioAssay data set” (2004)
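Growth conditions: 96-well plates. Treatment: test compound, 48 hours, 5 concentrations. Analysis: linear interpolation between bracketing concentrations; unreached endpoints set to highest concentration. GI50 marks 50% less growth.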 Activity calls are given as the source filed them. No stated cut-off is given here; in the data, active = GI50 up to about 1.1 µM and inactive = higher.

Columns and labels:
Assay in all cases: NCI-60 cell line screen, 48 h
786-0 = system: 786-0
A498 = system: A498
A549 = system: A549
ACHN = system: ACHN
BT-549 = system: BT-549
CAKI-1 = system: CAKI-1
CCRF-CEM = system: CCRF-CEM
COLO 205 = system: COLO 205
DU-145 = system: DU-145
EKVX = system: EKVX
HCC 2998 = system: HCC 2998
HCT-116 = system: HCT-116
HCT-15 = system: HCT-15
HL-60 = system: HL-60
HOP-62 = system: HOP-62
HOP-92 = system: HOP-92
HT-29 = system: HT-29
Hs-578T = system: Hs-578T
IGROV-1 = system: IGROV-1
K562 = system: K562
KM12 = system: KM12
LOX IMVI = system: LOX IMVI
M14 = system: M14
MCF7 = system: MCF7
MDA-MB-231 = system: MDA-MB-231
MDA-MB-435 = system: MDA-MB-435
MDA-N = system: MDA-N
MOLT-4 = system: MOLT-4
Malme-3M = system: Malme-3M
NCI-H226 = system: NCI-H226
NCI-H23 = system: NCI-H23
NCI-H460 = system: NCI-H460
NCI-H522 = system: NCI-H522
NCI/ADR-RES = system: NCI/ADR-RES
OVCAR-3 = system: OVCAR-3
OVCAR-4 = system: OVCAR-4
OVCAR-8 = system: OVCAR-8
PC-3 = system: PC-3
RPMI-8226 = system: RPMI-8226
RXF 393 = system: RXF 393
SF-268 = system: SF-268
SF-295 = system: SF-295
SF-539 = system: SF-539
SK-MEL-28 = system: SK-MEL-28
SK-MEL-2 = system: SK-MEL-2
SK-MEL-5 = system: SK-MEL-5
SK-OV-3 = system: SK-OV-3
SN12C = system: SN12C
SNB-19 = system: SNB-19
SNB-75 = system: SNB-75
SR = system: SR
SW-620 = system: SW-620
T47D = system: T47D
TK-10 = system: TK-10
U-251 = system: U-251
UACC-257 = system: UACC-257
UACC-62 = system: UACC-62
UO-31 = system: UO-31
OVCAR-5 = system: OVCAR-5

## CC(C)(C)OC(=O)N1CCc2c(n(C/C=C/c3ccccc3)[nH]c2=O)C1
786-0
  GI50: > 100 µM (inactive)
A498
  GI50: > 100 µM (inactive)
A549
  GI50: > 100 µM (inactive)
ACHN
  GI50: > 100 µM (inactive)
BT-549
  GI50: > 100 µM (inactive)
CAKI-1
  GI50: > 100 µM (inactive)
CCRF-CEM
  GI50: 72.3 µM (inactive)
COLO 205
  GI50: > 70.6 µM (inactive)
DU-145
  GI50: > 87.9 µM (inactive)
EKVX
  GI50: > 83.8 µM (inactive)
HCC 2998
  GI50: > 100 µM (inactive)
HCT-116
  GI50: > 100 µM (inactive)
HCT-15
  GI50: > 100 µM
HL-60
  GI50: 27.8 µM (inactive)
HOP-62
  GI50: > 80.7 µM (inactive)
HOP-92
  GI50: > 53.5 µM (inactive)
HT-29
  GI50: > 100 µM (inactive)
Hs-578T
  GI50: > 100 µM (inactive)
IGROV-1
  GI50: > 100 µM (inactive)
K562
  GI50: 46.6 µM (inactive)
KM12
  GI50: > 100 µM (inactive)
LOX IMVI
  GI50: > 100 µM (inactive)
M14
  GI50: > 100 µM (inactive)
MCF7
  GI50: 65.3 µM (inactive)
MDA-MB-231
  GI50: > 100 µM (inactive)
MDA-MB-435
  GI50: > 100 µM (inactive)
MDA-N
  GI50: > 100 µM (inactive)
MOLT-4
  GI50: 33.6 µM (inactive)
Malme-3M
  GI50: > 75.2 µM (inactive)
NCI-H226
  GI50: > 100 µM (inactive)
NCI-H23
  GI50: > 100 µM (inactive)
NCI-H460
  GI50: > 100 µM (inactive)
NCI-H522
  GI50: > 51.2 µM (inactive)
NCI/ADR-RES
  GI50: 26.2 µM (inactive)
OVCAR-3
  GI50: > 100 µM (inactive)
OVCAR-4
  GI50: 97.1 µM (inactive)
OVCAR-8
  GI50: > 100 µM (inactive)
PC-3
  GI50: > 100 µM (inactive)
RPMI-8226
  GI50: 95.5 µM (inactive)
RXF 393
  GI50: > 100 µM (inactive)
SF-268
  GI50: > 100 µM (inactive)
SF-295
  GI50: > 100 µM (inactive)
SF-539
  GI50: > 100 µM (inactive)
SK-MEL-28
  GI50: > 100 µM (inactive)
SK-MEL-2
  GI50: > 100 µM (inactive)
SK-MEL-5
  GI50: 34.4 µM (inactive)
SK-OV-3
  GI50: > 100 µM (inactive)
SN12C
  GI50: > 100 µM (inactive)
SNB-19
  GI50: > 100 µM (inactive)
SNB-75
  GI50: > 100 µM (inactive)
SR
  GI50: 35.5 µM (inactive)
SW-620
  GI50: > 100 µM (inactive)
T47D
  GI50: 46.7 µM (inactive)
TK-10
  GI50: > 81.3 µM (inactive)
U-251
  GI50: > 100 µM (inactive)
UACC-257
  GI50: > 100 µM (inactive)
UACC-62
  GI50: > 100 µM (inactive)
UO-31
  GI50: 61.2 µM (inactive)

## COc1ccc(/N=N/C(=N\c2ccc(Cl)cc2)c2ccc(N(CCC#N)CCC#N)cc2)cc1
786-0
  GI50: 83.8 µM (inactive)
A498
  GI50: 10.4 µM (inactive)
A549
  GI50: 47.6 µM (inactive)
ACHN
  GI50: 19.9 µM (inactive)
BT-549
  GI50: 12.6 µM (inactive)
CAKI-1
  GI50: 27.2 µM (inactive)
CCRF-CEM
  GI50: < 0.01 µM (active)
COLO 205
  GI50: 5.19 µM (inactive)
DU-145
  GI50: 20 µM (inactive)
EKVX
  GI50: 51.4 µM (inactive)
HCC 2998
  GI50: 4.91 µM (inactive)
HCT-116
  GI50: 43.9 µM (inactive)
HCT-15
  GI50: 2.39 µM
HOP-62
  GI50: 79.3 µM (inactive)
HOP-92
  GI50: 33.2 µM (inactive)
HT-29
  GI50: > 100 µM (inactive)
Hs-578T
  GI50: 87.9 µM (inactive)
IGROV-1
  GI50: 56.4 µM (inactive)
K562
  GI50: 26.4 µM (inactive)
KM12
  GI50: 15.6 µM (inactive)
M14
  GI50: 57.5 µM (inactive)
MCF7
  GI50: 8.05 µM (inactive)
MDA-MB-231
  GI50: 14.8 µM (inactive)
MDA-MB-435
  GI50: 7.23 µM (inactive)
MDA-N
  GI50: 37.4 µM (inactive)
MOLT-4
  GI50: 15.3 µM (inactive)
NCI-H226
  GI50: > 100 µM (inactive)
NCI-H23
  GI50: 40.9 µM (inactive)
NCI-H460
  GI50: 10.1 µM (inactive)
NCI-H522
  GI50: 17.4 µM (inactive)
NCI/ADR-RES
  GI50: 10.5 µM (inactive)
OVCAR-3
  GI50: 23.9 µM (inactive)
OVCAR-4
  GI50: 10.1 µM (inactive)
OVCAR-5
  GI50: 47 µM (inactive)
OVCAR-8
  GI50: > 100 µM (inactive)
PC-3
  GI50: 25.5 µM (inactive)
RPMI-8226
  GI50: 34.5 µM (inactive)
RXF 393
  GI50: 12.7 µM (inactive)
SF-268
  GI50: 41.3 µM (inactive)
SF-295
  GI50: 2.2 µM (inactive)
SF-539
  GI50: > 100 µM (inactive)
SK-MEL-28
  GI50: > 100 µM (inactive)
SK-MEL-2
  GI50: 0.851 µM (active)
SK-MEL-5
  GI50: 0.755 µM (active)
SK-OV-3
  GI50: > 100 µM (inactive)
SN12C
  GI50: > 100 µM (inactive)
SNB-19
  GI50: > 100 µM (inactive)
SNB-75
  GI50: 39 µM (inactive)
SR
  GI50: 0.834 µM (active)
SW-620
  GI50: 24.7 µM (inactive)
T47D
  GI50: 1.71 µM (inactive)
TK-10
  GI50: 38.7 µM (inactive)
U-251
  GI50: 41.4 µM (inactive)
UACC-257
  GI50: 11.4 µM (inactive)
UACC-62
  GI50: 1.49 µM (inactive)
UO-31
  GI50: 5.06 µM (inactive)
